Laboratory results reported in US20240000680A1, “MONO-HYDROXY OR DI-HYDROXY DERIVATIVES OF POLYUNSATURATED FATTY ACIDS, PRODUCTION METHOD THEREFOR, AND USE THEREOF” (KOLON INDUSTRIES, INC., priority 2019, published 2024).
Where “and” joins values, the source holds several entries; their conditions need not be identical. Equal values may be shown once.

Key:
Format in all cases: cell-based
IL-6 [1] = assay: IL-6 expression in UVB-irradiated HaCaT human keratinocytes (ELISA), Example 6; conditions: for IL-6 expression (% of control) Average: UVB +; for IL-6 expression (% of control) Average / expression of IL-6 (Table 7, single component vs complex composition): Con(−) = 100; for reduction of expression of IL-6 compared to Con(−): after UVB irradiation; for expression of IL-6 (Table 7, single component vs complex composition): UVB 20 mJ/cm^2
Procedure: In order to identify the synergistic anti-inflammation relieving effect of the SPMs complex composition, the complex compositions (Complexes 1 to 3) of 17-HDHA, Resolvin D5, and Protectin DX and each SPM single material were treated with HaCaT cells, which are human keratinocytes to identify changes in IL-6 expression.
Specifically, first, human keratinocytes were aliquoted in a 48-well plate at a concentration of 4×10^4 cells/well and cultured at 5% CO2, 37° C. for 24 hours, and then the medium was removed and the starvation state was maintained with DMEM Serum Free media for 24 hours.
The SPMs complex composition was diluted with DMEM (FBS 2%) to make 0.5, 1, 2, and 5 μg/ml, and then cultured as above and treated with human keratinocytes from which the medium was removed for 1 hour. […] In addition, after collecting the medium, the amount of IL-6 was measured using Human IL-6 DuoSet ELISA (R&D system). The cells adhering to the bottom were washed with DPBS, dissolved with 1N NaOH, and the amount of protein was measured through BCA analysis to measure the amount of IL-6 synthesized per a given protein. In this connection, the IL-6 expression inhibitory effect of the SPMs complex composition of the present invention and each single component was identified by using a case in which nothing was treated as Con(−) and a case in which 10 μM of hydrocortisone was treated as Con(+) after UVB irradiation.

procollagen = assay: Procollagen synthesis in human dermal fibroblasts (PIP EIA), Example 7; conditions: for Procollagen synthesis (% of control) Average: 24 hours; for Procollagen synthesis (% of control) Average / amount of procollagen (Table 10, single component vs complex composition): untreated control = 100; for amount of procollagen compared to untreated control group: single components, Table 8 concentrations; for amount of procollagen (Table 10, single component vs complex composition): concentration not given in Table 10; for amount of procollagen compared to positive control group (50 μM of retinyl palmitate): at a concentration of 1 μg/ml or more
Text: Collagen, a major component of the extracellular matrix, is synthesized in the form of a precursor called procollagen. The procollagen is known to be cut and isolated from collagen molecules when a polymerization reaction occurs. By measuring the amount of procollagen, the degree of collagen biosynthesis in the cells may be estimated.
[…] In this connection, the effect of the SPM single component and its complex compositions (compositions 1 to 3) was identified by using a case in which nothing was treated as an untreated control group and a case in which 50 μM of retinyl palmitate was treated as Con(+).

TNF-α [2] = assay: TNF-α expression inhibition in UVB-irradiated human keratinocytes, Example 9; conditions: 10 μM; UVB 160 mJ/cm^2; 24 hours
Procedure: Specifically, human keratinocytes were aliquoted in a 48-well plate at a concentration of 4×10^4 cells/well and cultured for 24 hours at 5% CO2 and 37° C., then the medium was removed and starvation state was maintained with DMEM Serum Free media for 24 hours.
The composition 2 was diluted with DMEM (2% FBS) to make 0.5, 1, 2, and 5 μg/ml, and then cultured as above and treated with human keratinocytes from which the medium was removed for 1 hour. Then, for TNF-α expression, the medium was exchanged with 250 μl of DPBS (WelGENE), irradiated with 160 mJ/cm^2 of UVB, and then treated with the SPMs again and cultured for 24 hours. In addition, after collecting the medium, the amount of TNF-α was measured using Human TNF-α DuoSet ELISA (R&D system), respectively. The cells adhering to the bottom were washed with DPBS, dissolved with 1N NaOH, and the amount of protein was measured through BCA analysis to measure the amount of TNF-α synthesized per a given protein. In this connection, the effect of the SPMs complex composition was identified by using a case in which nothing was treated as a negative control group and a case in which 10 μM of hydrocortisone was treated as a positive control group.

IL-6 [3] = assay: IL-6 expression inhibition in UVB-irradiated human keratinocytes (ELISA), Example 4-2; conditions: 10 ppm; UVB 160 mJ/cm^2; 24 hours
Procedure: (§1) Human keratinocytes were aliquoted in a 48-well plate at a concentration of 4×10^4 cells/well and cultured for 24 hours at 5% CO2 and 37° C., then the medium was removed and starvation state was maintained with DMEM Serum Free media for 24 hours.
(§2) The SPM 1 and SPM 2 were diluted with DMEM (2% FBS) to make 1 ppm, and then diluted sequentially to 0.1, 0.01 and 0.001 ppm, and then cultured as above and treated with human keratinocytes from which the medium was removed for 1 hour. Then, for TNF-α or IL-6 expression, the medium was exchanged with 250 μl of DPBS (WelGENE), irradiated with 160 mJ/cm^2 of UVB, and then treated with the SPM 1 and SPM 2 again and cultured for 24 hours. In addition, after collecting the medium, the amount of TNF-α was measured using Human TNF-α DuoSet ELISA (R&D system), and the amount of IL-6 was measured using Human IL-6 DuoSet ELISA (R&D system), respectively. The cells adhering to the bottom were washed with DPBS, dissolved with 1N NaOH, and the amount of protein was measured through BCA analysis to measure the amount of TNF-α or IL-6 synthesized per a given protein. In this connection, the effect of the two reaction products SPM 1 and SPM 2 was identified by using a case in which nothing was treated as a negative control group and a case in which 10 ppm of dexamethasone was treated as a positive control group.

TNF-α [4] = assay: TNF-α expression inhibition in UVB-irradiated human keratinocytes (ELISA), Example 4-2; conditions: 10 ppm; UVB 160 mJ/cm^2; 24 hours
Procedure: as §1, §2

MMP-1 [5] = assay: Collagenase (MMP-1) expression inhibition in UVB-irradiated human dermal fibroblasts (ELISA), Example 4-4; conditions: 6 ppm; UVB 100 mJ/cm^2; 48 hours
Procedure: (§3) MMPs (matrix metalloproteinases) are enzymes with proteolytic activity, and by decomposing proteins constituting the extracellular matrix, they have an important effect on the binding of cells and proteins constituting the extracellular matrix. There are 28 types of MMPs, of which MMP-1 is an enzyme that decomposes collagen. In this example, the expression level of MMP-1 in cells was identified.
After culturing human dermal fibroblasts for 24 hours, the medium was exchanged with DPBS (WelGENE) at a concentration of 250 μl/well, and irradiated with 100 mJ/cm^2 of UVB. Then, the SPM 1 and SPM 2 were treated with DMEM (2% FBS) diluted to a concentration of 0.01, 0,1 and 1 ppm, respectively, and cultured for 48 hours. After collecting the cultured cell medium, the amount of MMP-1 was measured using a human total MMP-1 ELISA kit (R&D systems, DY901). At this connection, the effect of the two reaction products SPM 1 and SPM 2 was identified by using a case in which nothing was treated as a negative control group and a case in which 6 ppm of retinoic acid was treated as a positive control group.

MMP-1 [6] = assay: Collagenase (MMP-1) expression inhibition in UVB-irradiated human dermal fibroblasts, Example 8; conditions: 20 μM; UVB 100 mJ/cm^2; 48 hours
Procedure: as §3
Specifically, after culturing human dermal fibroblasts for 24 hours, the medium was exchanged with DPBS (WelGENE) at a concentration of 250 μl/well, and irradiated with 100 mJ/cm^2 of UVB. Then, the composition 2 was treated with DMEM (2% FBS) diluted to a concentration of 0.1, 1, 2, and 5 ppm, respectively, and cultured for 48 hours. After collecting the cultured cell medium, the amount of MMP-1 was measured using a human total MMP-1 ELISA kit (R&D systems, DY901). At this connection, the effect of composition 2 was identified by using a case in which nothing was treated as a negative control group and a case in which 20 μM of retinoic acid was treated as a positive control group.

Structure (SMILES): CC/C=C\CC(O)/C=C/C=C\C/C=C\C/C=C\C/C=C\CCC(=O)O (racemic) [Composition 17S-HDHA, (±) 17-hydroxy (dihydroxy)-4Z, 7Z, 10Z, 13Z, 15E, 19Z-docosahexaenoic acid]
- IL-6 expression (% of control) Average (IL-6 [1]; 0.1 μg/ml): 89.63 % of control
- IL-6 expression (% of control) Average (IL-6 [1]; 1 μg/ml): 83 % of control
- IL-6 expression (% of control) Average (IL-6 [1]; 2 μg/ml): 89.17 % of control
- reduction of expression of IL-6 compared to Con(−) (IL-6 [1]; 2 μg/ml): 10.8%
- IL-6 expression (% of control) Average (IL-6 [1]; 5 μg/ml): 81.66 % of control
- expression of IL-6 (Table 7, single component vs complex composition) (IL-6 [1]; 2 μg/ml): 89.17
- Procollagen synthesis (% of control) Average (procollagen; 0.01 μg/ml): 212.76 % of control
- Procollagen synthesis (% of control) Average (procollagen; 0.1 μg/ml): 237.76 % of control
- Procollagen synthesis (% of control) Average (procollagen; 1 μg/ml): 235.8 % of control
- Procollagen synthesis (% of control) Average (procollagen; 2 μg/ml): 255.32 % of control
- amount of procollagen compared to untreated control group (procollagen): greater amount of procollagen than the untreated control group
- amount of procollagen (Table 10, single component vs complex composition) (procollagen): 255.32

Structure (SMILES): C[C@]12CCC(=O)C=C1CC[C@@H]1[C@@H]2[C@@H](O)C[C@@]2(C)[C@H]1CC[C@]2(O)C(=O)CO [Con(+) H.C., hydrocortisone, reference compound]
- reduction of UVB-increased expression of TNF-α (TNF-α [2]): about 52%
- IL-6 expression (% of control) Average (IL-6 [1]; 10 μM): 31.23 % of control and 42.82 % of control

Structure (SMILES): CCCCCCCCCCCCCCCC(=O)OC/C=C(C)/C=C/C=C(C)/C=C/C1=C(C)CCCC1(C)C [Con(+) R.P., retinyl palmitate, reference compound]
- Procollagen synthesis (% of control) Average (procollagen; 50 μM): 249.88 % of control and 240.2 % of control

Structure (SMILES): CC/C=C\C[C@H](O)/C=C/C=C\C=C\[C@@H](O)C/C=C\C/C=C\CCC(=O)O [PDX, 10S, 17S-dihydroxy-4Z,7Z,11E,13Z,15E,19Z-docosahexaenoic acid]
- IL-6 expression (% of control) Average (IL-6 [1]; 0.1 μg/ml): 95.36 % of control
- IL-6 expression (% of control) Average (IL-6 [1]; 1 μg/ml): 102.69 % of control
- IL-6 expression (% of control) Average (IL-6 [1]; 2 μg/ml): 88.13 % of control
- reduction of expression of IL-6 compared to Con(−) (IL-6 [1]; 2 μg/ml): 11.8%
- IL-6 expression (% of control) Average (IL-6 [1]; 5 μg/ml): 86.72 % of control
- expression of IL-6 (Table 7, single component vs complex composition) (IL-6 [1]; 2 μg/ml): 88.13
- Procollagen synthesis (% of control) Average (procollagen; 0.01 μg/ml): 237.15 % of control
- Procollagen synthesis (% of control) Average (procollagen; 0.1 μg/ml): 244.1 % of control
- Procollagen synthesis (% of control) Average (procollagen; 1 μg/ml): 251.41 % of control
- Procollagen synthesis (% of control) Average (procollagen; 2 μg/ml): 254.1 % of control
- amount of procollagen compared to positive control group (50 μM of retinyl palmitate) (procollagen): greater amount of procollagen was identified compared to the positive control group
- amount of procollagen compared to untreated control group (procollagen): greater amount of procollagen than the untreated control group
- amount of procollagen (Table 10, single component vs complex composition) (procollagen): 254.1

Structure (SMILES): CC/C=C\C[C@H](O)/C=C/C=C\C/C=C\C=C\[C@@H](O)C/C=C\CCC(=O)O [RvD5, 7S, 17S-dihydroxy-4Z, 8E, 10Z, 13Z, 15E, 19Z-docosahexaenoic acid]
- IL-6 expression (% of control) Average (IL-6 [1]; 0.1 μg/ml): 99.58 % of control
- IL-6 expression (% of control) Average (IL-6 [1]; 1 μg/ml): 109.86 % of control
- IL-6 expression (% of control) Average (IL-6 [1]; 2 μg/ml): 99.49 % of control
- reduction of expression of IL-6 compared to Con(−) (IL-6 [1]; 2 μg/ml): 0.5%
- IL-6 expression (% of control) Average (IL-6 [1]; 5 μg/ml): 83.38 % of control
- expression of IL-6 (Table 7, single component vs complex composition) (IL-6 [1]; 2 μg/ml): 99.49
- Procollagen synthesis (% of control) Average (procollagen; 0.01 μg/ml): 245.68 % of control
- Procollagen synthesis (% of control) Average (procollagen; 0.1 μg/ml): 248 % of control
- Procollagen synthesis (% of control) Average (procollagen; 1 μg/ml): 249.34 % of control
- Procollagen synthesis (% of control) Average (procollagen; 2 μg/ml): 255.32 % of control
- amount of procollagen compared to positive control group (50 μM of retinyl palmitate) (procollagen): greater amount of procollagen was identified compared to the positive control group
- amount of procollagen compared to untreated control group (procollagen): greater amount of procollagen than the untreated control group
- amount of procollagen (Table 10, single component vs complex composition) (procollagen): 255.32

Structure (SMILES): C[C@@H]1C[C@H]2[C@@H]3CCC4=CC(=O)C=C[C@]4(C)[C@@]3(F)[C@@H](O)C[C@]2(C)[C@@]1(O)C(=O)CO [dexamethasone]
- reduction of UVB-increased expression of IL-6 (IL-6 [3]): about 88%
- reduction of UVB-increased expression of TNF-α (TNF-α [4]): about 35%

Structure (SMILES): CC1=C(/C=C/C(C)=C/C=C/C(C)=C/C(=O)O)C(C)(C)CCC1 [retinoic acid]
- reduction of UVB-increased expression of MMP-1 (MMP-1 [5]): about 70%
- reduction of UVB-increased expression of MMP-1 (MMP-1 [6]): about 70%
